Reference: patent publication US11234437B2 (priority 2017, dated 2022)

Tests used:
[1] = test system: Glomerella lagenarium (Colletotrichum lagenarium); assay: Glomerella lagenarium (Colletotrichum lagenarium) / liquid culture (anthracnose); type: cell-based; details: Colletotrichum orbiculare, compared to untreated control
Protocol: (§1) Conidia of the fungus from cryogenic storage are directly mixed into nutrient broth (PDB potato dextrose broth). After placing a (DMSO) solution of test compound into a microtiter plate (96-well format), the nutrient broth containing the fungal spores is added. The test plates are incubated at 24° C. and the inhibition of growth is measured photometrically 3-4 days after application.

[2] = test system: Gibberella zeae (Fusarium graminearum); assay: whole plant or invertebrate; type: in vivo; details: in Triticum aestivum, read-out: control of Gibberella zeae
[3] = test system: Magnaporthe grisea (Pyricularia oryzae); assay: microbe, parasite or virus in culture; type: cell-based; details: read-out: control of Magnaporthe grisea
Sclerotinia sclerotiorum = Sclerotinia sclerotiorum / liquid culture (cottony rot); type: cell-based; details: compared to untreated control
Protocol: Sclerotinia sclerotiorum/Liquid Culture (Cottony Rot)
Mycelia fragments of a newly grown liquid culture of the fungus are directly mixed into nutrient broth (Vogels broth). After placing a (DMSO) solution of test compound into a microtiter plate (96-well format) the nutrient broth containing the fungal material is added. The test plates are incubated at 24° C. and the inhibition of growth is determined photometrically 3-4 days after application.

[4] = test system: Botryotinia fuckeliana (Botrytis cinerea); assay: Botryotinia fuckeliana (Botrytis cinerea) / liquid culture (gray mould); type: cell-based; details: compared to untreated control
Protocol: Botryotinia fuckeliana (Botrytis cinerea)/Liquid Culture (Gray Mould)
as §1, with “(Vogels” for “(PDB potato dextrose”, “determined” for “measured”

Fusarium culmorum [5] = assay: whole plant or invertebrate; type: in vivo; details: in Triticum aestivum, read-out: control of Fusarium culmorum
Fusarium culmorum [6] = assay: microbe, parasite or virus in culture; type: cell-based; details: read-out: control of Fusarium culmorum
[7] = test system: Monographella nivalis (Microdochium nivale); assay: Monographella nivalis (Microdochium nivale) / liquid culture (foot rot cereals); type: cell-based; details: compared to untreated control
Protocol: Monographella nivalis (Microdochium nivale)/Liquid Culture (Foot Rot Cereals)
as §1, with “determined” for “measured”, “4-5” for “3-4”

Gaeumannomyces graminis = Gaeumannomyces graminis / liquid culture (take-all of cereals); type: cell-based; details: compared to untreated control
Protocol: as §1, with “Mycelial fragments of” for “Conidia of”, “storage were” for “storage are”, “is determined” for “is measured”, “photometrically 4-5” for “photometrically 3-4”

Row | Compound | inhibition of growth at 200 ppm [1] | pest or weed control at 200 ppm [2] | inhibition of growth at 20 ppm [3] | inhibition of growth at 20 ppm (Sclerotinia sclerotiorum) | inhibition of growth at 200 ppm [4] | pest or weed control at 200 ppm (Fusarium culmorum [5]) | inhibition of growth at 200 ppm (Fusarium culmorum [6]) | inhibition of growth at 20 ppm [7] | melting point | inhibition of growth at 20 ppm (Gaeumannomyces graminis)
1 | CC(C)C[C@](C)(Cc1cccc(F)c1)NC(=O)c1cnc2c(F)cccc2c1 [Compound F-29, 8-fluoro-N-[(1R)-1-[(3-fluorophenyl)methyl]-1,3-dimethyl-butyl]quinoline-3-carboxamide] | ≥ 80% | ≥ 80% | ≥ 80% | ≥ 80% | ≥ 80% | ≥ 80% | ≥ 80% |  |  | 
2 | CC1(C[C@@](C)(Cc2ccccc2)NC(=O)c2cnc3c(F)cccc3c2)CC1 [Compound F-26, N-[(1S)-1-benzyl-1-methyl-2-(1-methylcyclopropyl)ethyl]-8-fluoro-quinoline-3-carboxamide] | ≥ 80% |  | ≥ 80% |  | ≥ 80% |  | ≥ 80% | ≥ 80% |  | 
3 | CC(C)C[C@@](C)(Cc1cccc(F)c1)NC(=O)c1cnc2c(F)cccc2c1 [Compound F-30, 8-fluoro-N-[(1S)-1-[(3-fluorophenyl)methyl]-1,3-dimethyl-butyl]quinoline-3-carboxamide] | ≥ 80% |  | ≥ 80% |  | ≥ 80% | ≥ 80% | ≥ 80% | ≥ 80% |  | 
4 | CC(Cc1cccc(F)c1)(CC(F)(F)F)NC(=O)c1cnc2c(F)cccc2c1 (stereo not shown) [X.012, 8-fluoro-N-[3,3,3-trifluoro-1-[(3-fluorophenyl)methyl]-1-methyl-propyl]quinoline-3-carboxamide] |  | ≥ 80% | ≥ 80% | ≥ 80% |  |  |  | ≥ 80% | 149 to 151 °C | 
5 | CC(C)CC(C)(Cc1ccccc1)NC(=O)c1cnc2c(F)c(F)ccc2c1 (stereo not shown) [X.008, N-(1-benzyl-1,3-dimethyl-butyl)-7,8-difluoro-quinoline-3-carboxamide] |  | ≥ 80% | ≥ 80% |  |  |  |  | ≥ 80% | 114 to 116 °C | ≥ 80%
6 | CC(F)(F)C[C@](C)(Cc1ccccc1)NC(=O)c1cnc2c(F)cccc2c1 [Compound F-32, N-[(1S)-1-benzyl-3,3-difluoro-1-methyl-butyl]-8-fluoro-quinoline-3-carboxamide] |  | ≥ 80% | ≥ 80% | ≥ 80% |  |  |  |  |  | 
7 | Cc1cccc2cc(C(=O)NC(C)(Cc3ccccc3)CC(C)C)cnc12 (stereo not shown) [X.017, N-(1-benzyl-1,3-dimethyl-butyl)-8-methyl-quinoline-3-carboxamide] |  | ≥ 80% | ≥ 80% |  |  |  |  | ≥ 80% | 132 to 133 °C | ≥ 80%
8 | C=C(Cl)C[C@@](C)(Cc1ccccc1)NC(=O)c1cnc2c(F)cccc2c1 [Compound F-36] | ≥ 80% |  |  |  | ≥ 80% |  | ≥ 80% |  |  | 
9 | C[C@](Cc1ccccc1)(CC(F)(F)F)NC(=O)c1cnc2c(Cl)cccc2c1 [Compound F-19, N-[(1S)-1-benzyl-3,3,3-trifluoro-1-methyl-propyl]-8-chloro-quinoline-3-carboxamide] |  | ≥ 80% | ≥ 80% | ≥ 80% |  |  |  |  |  | 
10 | C[C@@](Cc1cccc(F)c1)(CC(F)(F)F)NC(=O)c1cnc2c(F)cccc2c1 [Compound F-27, 8-fluoro-N-[(1R)-3,3,3-trifluoro-1-[(3-fluorophenyl)methyl]-1-methyl-propyl]quinoline-3-carboxamide] | ≥ 80% | ≥ 80% | ≥ 80% |  | ≥ 80% | ≥ 80% | ≥ 80% | ≥ 80% |  | 
11 | C[C@@](Cc1ccccc1)(CC(F)(F)F)NC(=O)c1cnc2ccccc2c1 [Compound F-33, N-[(1R)-1-benzyl-3,3,3-trifluoro-1-methyl-propyl]quinoline-3-carboxamide] | ≥ 80% |  |  |  | ≥ 80% | ≥ 80% | ≥ 80% |  |  | 
12 | C[C@@](Cc1ccccc1)(CC1(F)CC1)NC(=O)c1cnc2c(F)cccc2c1 [Compound F-23, N-[(1R)-1-benzyl-2-(1-fluorocyclopropyl)-1-methyl-ethyl]-8-fluoro-quinoline-3-carboxamide] | ≥ 80% |  | ≥ 80% |  | ≥ 80% | ≥ 80% | ≥ 80% | ≥ 80% |  | 
13 | C[C@](Cc1ccccc1)(CC(F)(F)F)NC(=O)c1cnc2c(F)c(F)ccc2c1 [Compound F-21, N-[(1S)-1-benzyl-3,3,3-trifluoro-1-methyl-propyl]-7,8-difluoro-quinoline-3-carboxamide] |  |  | ≥ 80% | ≥ 80% |  |  |  |  |  | 
14 | Cc1cccc2cc(C(=O)N[C@@](C)(Cc3ccccc3)CC(F)(F)F)cnc12 [Compound F-17, N-[(1S)-1-benzyl-3,3,3-trifluoro-1-methyl-propyl]-8-methyl-quinoline-3-carboxamide] |  |  | ≥ 80% | ≥ 80% |  |  |  | ≥ 80% |  | 
15 | CC(C)CC(C)(Cc1ccccc1)NC(=O)c1cnc2ccccc2c1 (stereo not shown) [X.019, N-(1-benzyl-1,3-dimethyl-butyl)quinoline-3-carboxamide] |  | ≥ 80% |  |  |  |  |  | ≥ 80% | 121 to 123 °C | ≥ 80%
16 | CC(Cc1ccccc1)(CC1(F)CC1)NC(=O)c1cnc2c(F)cccc2c1 (stereo not shown) [X.013, N-[1-benzyl-2-(1-fluorocyclopropyl)-1-methyl-ethyl]-8-fluoro-quinoline-3-carboxamide] | ≥ 80% |  | ≥ 80% | ≥ 80% | ≥ 80% |  | ≥ 80% | ≥ 80% | 119 to 121 °C | 
17 | CC(C)C[C@@](C)(Cc1ccccc1)NC(=O)c1cnc2c(F)c(F)ccc2c1 [Compound F-13, N-[(1S)-1-benzyl-1,3-dimethyl-butyl]-7,8-difluoro-quinoline-3-carboxamide] |  | ≥ 80% | ≥ 80% |  |  | ≥ 80% |  |  |  | 
18 | CC(C)CC(C)(Cc1ccccc1)NC(=O)c1cnc2c(F)cccc2c1 (stereo not shown) [X.002, N-(1-benzyl-1,3-dimethyl-butyl)-8-fluoro-quinoline-3-carboxamide] |  |  | ≥ 80% |  |  |  |  | ≥ 80% | 110 to 112 °C | ≥ 80%
19 | CC(Cc1ccccc1)(CC(F)(F)F)NC(=O)c1cnc2c(F)c(F)ccc2c1 (stereo not shown) [X.007, N-(1-benzyl-3,3,3-trifluoro-1-methyl-propyl)-7,8-difluoro-quinoline-3-carboxamide] |  | ≥ 80% | ≥ 80% | ≥ 80% |  |  |  |  |  | 
